The values that follow come from patent US8685974B2 (Bayer CropScience AG, priority 2009, dated 2014).

Structures are written as SMILES. Where a name gives a salt, the structure may show the parent alone. Marks after values point to notes of the source that are not given here.

As usually defined, the chromatographic logP is a lipophilicity value derived from retention on a column. A high value points to higher lipophilicity.

In one data set the test system is Leptosphaeria nodorum. Put plainly: Leptosphaeria nodorum test (wheat) / protective. The class given is in vivo. Conditions: 500 ppm active compound, protective spray, evaluated 7-9 days after inoculation. As for the experimental part:
Leptosphaeria nodorum Test (Wheat)/Protective
Solvent: 49 parts by weight of N,N-dimethylformamide
Emulsifier: 1 part by weight of alkylaryl polyglycol ether
To produce a suitable preparation of active compound, 1 part by weight of active compound is mixed with the stated amounts of solvent and emulsifier, and the concentrate is diluted with water to the desired concentration.
To test for protective activity, young wheat plants are sprayed with the preparation of active compound at the stated application rate. […] The plants are then placed in a greenhouse at 90% rel. atmospheric humidity and a temperature of 22° C.
Evaluation is carried out 7-9 days after the inoculation. 0% means an efficacy which corresponds to that of the control, whereas an efficacy of 100% means that no infection is observed.
As to `COc1ccc(Cn2cc(-c3ccncc3)c(-c3ccc(Cl)s3)n2)cc1` [Example 104], the efficacy worked out at 80%.

In turn, `CCC(C)n1cc(-c2ccnc(Cl)c2)c(-c2ccc(Cl)s2)n1` (stereo not shown) [Example 318] came in with an efficacy of 70%.

System in another data set: not given
Assay: not given
The conditions noted are these: pH 2.7.
Turning to `COc1ccc(Cn2cc(-c3ccncc3)c(-c3ccc(Cl)s3)n2)cc1` [Example 104], the log p is 2.74^[b].

In the case of `CCC(C)n1cc(-c2ccnc(Cl)c2)c(-c2ccc(Cl)s2)n1` (stereo not shown) [Example 318], the log p is 4.89^[b].

System in another data set: not listed separately
As to the kind of experiment: physchem. Conditions: pH 2.7.
`CC(C)Cn1cc(-c2ccncc2)c(-c2ccc(Br)s2)n1` [4-[1-isobutyl-3-(5-bromo-2-thienyl)-1H-pyrazol-4-yl]pyridine] gave a log p of 2.04.

The compound `CCC(C)n1cc(-c2ccncc2)c(-c2cc(Cl)cs2)n1` (stereo not shown) [4-[1-sec-Butyl-3-(4-chloro-2-thienyl)-1H-pyrazol-4-yl]pyridine] showed a log p of 1.83.

The compound `CCC(C)n1cc(-c2ccnc(C#CC3CC3)c2)c(-c2ccc(Cl)s2)n1` (stereo not shown) [4-[1-sec-Butyl-3-(5-chloro-2-thienyl)-1H-pyrazol-4-yl]-2-(cyclopropylethynyl)pyridine] yielded a log p of 4.56.

`CCC(C)n1cc(-c2ccnc(C(=O)NC(C)C)c2)c(-c2ccc(Cl)s2)n1` (stereo not shown) [4-[1-sec-Butyl-3-(5-chloro-2-thienyl)-1H-pyrazol-4-yl]-N-isopropylpyridine-2-carboxamide] registered a log p of 4.82.

The compound `CCC(C)n1cc(-c2ccncc2)c(-c2ccc(Cl)s2)n1` (stereo not shown) [4-[1-sec-Butyl-3-(5-chloro-2-thienyl)-1H-pyrazol-4-yl]pyridine] yielded a log p of 2.1.

Regarding `CCC(C)n1ncc(-c2ccncc2)c1-c1ccc(Cl)s1` (stereo not shown) [4-[1-sec-Butyl-5-(5-chloro-2-thienyl)-1H-pyrazol-4-yl]pyridine], the log p was determined as 1.94.

`CCC(C)n1cc(-c2ccncc2)c(-c2ccc(F)s2)n1` (stereo not shown) [4-[1-sec-butyl-3-(5-fluoro-2-thienyl)-1H-pyrazol-4-yl]pyridine] returned a log p of 1.78.

`CCC(C)n1ncc(-c2ccncc2)c1-c1ccc(F)s1` (stereo not shown) [4-[1-sec-butyl-5-(5-fluoro-2-thienyl)-1H-pyrazol-4-yl]pyridine]: the log p turned out to be 1.84.

As to `Brc1ccc(-c2n[nH]cc2-c2ccncc2)s1` [4-[3-(5-Bromo-2-thienyl)-1H-pyrazol-4-yl]pyridine], the log p was 0.94.

In turn, `CSc1nccc(-c2cn(C(C)C)nc2-c2ccc(Cl)s2)n1` [4-[3-(5-Chloro-2-thienyl)-1-isopropyl-1H-pyrazol-4-yl]-2-(methylsulfanyl)pyrimidine] displayed a log p of 4.44.

In turn, `CC(C)n1cc(-c2ccnc(S(C)(=O)=O)n2)c(-c2ccc(Cl)s2)n1` [4-[3-(5-Chloro-2-thienyl)-1-isopropyl-1H-pyrazol-4-yl]-2-(methylsulfonyl)pyrimidine] displayed a log p of 3.15.

On to `CC(C)Nc1nccc(-c2c[nH]nc2-c2ccc(Cl)s2)n1` [4-[3-(5-Chloro-2-thienyl)-1H-pyrazol-4-yl]-2-(isopropylamino)pyrimidine], for which the log p was determined as 1.79.

Take `CSc1nccc(-c2c[nH]nc2-c2ccc(Cl)s2)n1` [4-[3-(5-Chloro-2-thienyl)-1H-pyrazol-4-yl]-2-(methylsulfanyl)pyrimidine]: the log p was 2.78.

`CC#Cc1[nH]nc(-c2ccc(Cl)s2)c1-c1ccncc1` [4-[3-(5-Chloro-2-thienyl)-5-(prop-1-yn-1-yl)-1H-pyrazol-4-yl]pyridine] registered a log p of 1.44.

`Clc1ccc(-c2n[nH]c(C3CC3)c2-c2ccncc2)s1` [4-[3-(5-Chloro-2-thienyl)-5-cyclopropyl-1H-pyrazol-4-yl]pyridine]: the log p is 1.29.

`CCC(C)n1nc(-c2ccc(Cl)s2)c(-c2ccncc2)c1F` (stereo not shown) [4-[3-(5-Chloro-2-thienyl)-5-fluoro-1-secbutyl-1H-pyrazol-4-yl]pyridine] had a log p of 2.61.

`CCC(C)n1nc(-c2ccc(Cl)s2)c(-c2ccncc2)c1SC` (stereo not shown) [4-[3-(5-Chloro-2-thienyl)-5-methylsulfanyl-1-secbutyl-1H-pyrazol-4-yl]pyridine]: the log p stood at 3.35.

The compound `Fc1ccc(-c2n[nH]cc2-c2ccncc2)s1` [4-[3-(5-Fluoro-2-thienyl)-1H-pyrazol-4-yl]pyridine] showed a log p of 0.57.

Consider `CC(C)Cn1cc(-c2ccnc3ccccc23)c(-c2ccc(Cl)s2)n1` [4-[3-(5-chloro-2-thienyl)-1-isobutyl-1H-pyrazol-4-yl]quinoline], for which the log p worked out at 3.69.

Take `Clc1ccc(-c2n[nH]cc2-c2ccncc2)s1` [4-[3-(5-chloro-2-thienyl)-1H-pyrazol-4-yl]pyridine]: the log p is 0.9.

On to `FC(F)(F)c1ccc(-c2n[nH]cc2-c2ccncc2)s1` [4-[3-(5-trifluoromethyl-2-thienyl)-1H-pyrazol-4-yl]pyridine hydrochloride], for which the log p amounted to 1.34.

`CC(C)n1nc(C2CC2)c(-c2ccncc2)c1-c1ccc(Cl)s1` [4-[3-Cyclopropyl-1-isopropyl-5-(5-chloro-2-thienyl)-1H-pyrazol-4-yl]pyridine] gave a log p of 2.44.

`Cc1n[nH]c(-c2ccc(Cl)s2)c1-c1ccncc1` [4-[5-(5-Chloro-2-thienyl)-3-methyl-1H-pyrazol-4-yl]pyridine] had a log p of 1.07.

Compound `Clc1ccc(-c2n[nH]c(Br)c2-c2ccncc2)s1` [4-[5-Bromo-3-(5-chloro-2-thienyl)-1H-pyrazol-4-yl]pyridine] gave a log p of 1.4.

`CCC(C)n1nc(-c2ccc(Cl)s2)c(-c2ccncc2)c1Cl` (stereo not shown) [4-[5-Chloro-1-secbutyl-3-(5-chloro-2-thienyl)-1H-pyrazol-4-yl]pyridine] came in with a log p of 3.44.

The compound `CC(C)n1nc(-c2ccc(Cl)s2)c(-c2ccncc2)c1C1CC1` [4-[5-Cyclopropyl-1-isopropyl-3-(5-chloro-2-thienyl)-1H-pyrazol-4-yl]pyridine] showed a log p of 2.44.

Compound `CC(C)n1nccc1-c1cc(Br)c(Br)s1` [5-(4,5-Dibromo-2-thienyl)-1-isopropyl-1H-pyrazole] yielded a log p of 4.44.

On to `CCn1nccc1-c1cc(Br)cs1` [5-(4-Bromo-2-thienyl)-1-ethyl-1H-pyrazole], for which the log p was determined as 2.92.

Compound `CC(C)n1nccc1-c1cc(Br)cs1` [5-(4-Bromo-2-thienyl)-1-isopropyl-1H-pyrazole] displayed a log p of 3.44.

In turn, `CCn1ncc(I)c1-c1cc(Cl)cs1` [5-(4-Chloro-2-thienyl)-1-ethyl-4-iodo-1H-pyrazole] showed a log p of 3.76.

Regarding `CCCn1nccc1-c1cc(C)cs1` [5-(4-Methyl-2-thienyl)-1-propyl-1H-pyrazole], the log p was 3.1.

The compound `CC(C)Cn1cc(-c2cc(N)ncn2)c(-c2ccc(Cl)s2)n1` [6-[3-(5-chloro-2-thienyl)-1-isobutyl-1H-pyrazol-4-yl]pyrimidin-4-amine] yielded a log p of 1.97.

Compound `CCn1cc(-c2ccncc2)c(-c2cccs2)n1` [Example 148, 4-[1-Ethyl-3-(2-thienyl)-1H-pyrazol-4-yl]pyridine] yielded a chromatographic logP of 0.75.

`CCC(=O)Nc1cc(-c2cn(CC)nc2-c2cccs2)ccn1` [Example 149, N-{4-[1-Ethyl-3-(2-thienyl)-1H-pyrazol-4-yl]pyridin-2-yl}propanamide] displayed a chromatographic logP of 1.65.

Take `CC(=O)N(C(C)=O)c1cc(-c2cn(C(C)C)nc2-c2ccc(Cl)s2)ccn1` [N-Acetyl-N-{4-[3-(5-chloro-2-thienyl)-1-isopropyl-1H-pyrazol-4-yl]pyridin-2-yl}acetamide]: the log p came to 3.33.

Compound `CC(=O)N(C(C)=O)c1nccc(-c2cn(C(C)C)nc2-c2ccc(Cl)s2)n1` [N-Acetyl-N-{4-[3-(5-chloro-2-thienyl)-1-isopropyl-1H-pyrazol-4-yl]pyrimidin-2-yl}acetamide] gave a log p of 3.33.

The compound `CC(C)n1cc(-c2ccnc(NCc3ccccc3)n2)c(-c2ccc(Cl)s2)n1` [N-Benzyl-4-[3-(5-chloro-2-thienyl)-1-isopropyl-1H-pyrazol-4-yl]pyrimidin-2-amine] displayed a log p of 3.81.

Turning to `CC(C)Nc1nccc(-c2cn(C(C)C)nc2-c2ccc(Cl)s2)n1` [N-Isopropyl-4-[3-(5-chloro-2-thienyl)-1-isopropyl-1H-pyrazol-4-yl]pyrimidin-2-amine], the log p is 2.82.

The compound `CCC(=O)Nc1cc(-c2cn(CC)nc2-c2cccs2)ccn1` [N-{4-[1-Ethyl-3-(2-thienyl)-1H-pyrazol-4-yl]pyridin-2-yl}propanamide] had a log p of 1.65.

`CCC(C)n1cc(-c2ccnc(NC(C)=O)c2)c(-c2ccc(Cl)s2)n1` (stereo not shown) [N-{4-[1-sec-butyl-3-(5-chloro-2-thienyl)-1H-pyrazol-4-yl]pyridin-2-yl}acetamide]: the log p turned out to be 2.94.

In turn, `CC(=O)Nc1nccc(-c2cn(C(C)C)nc2-c2ccc(Cl)s2)n1` [N-{4-[3-(5-Chloro-2-thienyl)-1-isopropyl-1H-pyrazol-4-yl]pyrimidin-2-yl}acetamide] displayed a log p of 2.59.

Consider `CC(=O)Nc1cc(-c2cn(CC(C)C)nc2-c2ccc(Cl)s2)cc[n+]1[O-]` [N-{4-[3-(5-chloro-2-thienyl)-1-isobutyl-1H-pyrazol-4-yl]-1-oxidopyridin-2-yl}acetamide], for which the log p came to 2.86.

Take `CC(C)Cn1cc(-c2ccnc(N(C(=O)C3CC3)C(=O)C3CC3)c2)c(-c2ccc(Cl)s2)n1` [N-{4-[3-(5-chloro-2-thienyl)-1-isobutyl-1H-pyrazol-4-yl]pyridin-2-yl}-N-(cyclopropylcarbonyl)cyclopropanecarboxamide]: the log p was found to be 4.75.

Still in this data set, the particulars now being: pH 7.8.
For `CCn1cc(-c2ccncc2)c(-c2cccs2)n1` [Example 148, 4-[1-Ethyl-3-(2-thienyl)-1H-pyrazol-4-yl]pyridine], the chromatographic logP came out at 2.06.

`CCC(=O)Nc1cc(-c2cn(CC)nc2-c2cccs2)ccn1` [Example 149, N-{4-[1-Ethyl-3-(2-thienyl)-1H-pyrazol-4-yl]pyridin-2-yl}propanamide] returned a chromatographic logP of 2.26.
